“Also recorded” adds a separate entry of the source. Where no end group is shown, it is not given here.
Assays:
[1] = system: osteoclast differentiation; test: Osteoclast differentiation from bone marrow mononuclear cells (M-CSF and RANKL); format: cell-based, human; conditions: 150 μM (C5)
Method: (§1) Osteoclasts were generated in vitro by the modified method of Cody et al., 2011, using fresh human bone marrow aspirates. Briefly, bone marrow mononuclear cells (BMC) separated on a density gradient medium in SepMate tubes were resuspended in growth media (α-MEM with 10% FBS) and cultured for 3 days in T75 flask with 35 ng/mL M-CSF at 37° C. in a 5% CO2 incubator. For osteoclast differentiation experiments, 10^5 cells/well of BM monocytes-macrophage precursors seeded in a 24 well plate was treated with human M-CSF and RANKL, and media replenished with fresh cytokines every third day for two weeks.
(§2) 10^5 BMCs per well in 24 well Corning osteoassay plate were treated with human M-CSF (10 ng/mL) and 10 ng/mL of human RANKL. […] Osteoassay plate was scanned using ChemiDoc MP and area of resorption pits in each well was quantified using ImageJ 1.48v Software.
(§3) The effect of C-terminal Soricidin peptides on osteoclast activity and bone resorption was examined using 24-well corning assay plates that have a 3D osteo surface that mimics in vivo bone for in vitro bone cell assays. […] Resorption of the osteosurface is evident from the resorption pits/trails made by the osteoclasts, and the extent of resorption was quantified. Furthermore, the percentage activity of TRAP, one of the enzymes involved in bone resorption, was determined in tandem with the resorption assay (FIG. 7c). […]

KMM-1 cells = test: 48 hr peptide treatment, myeloma cell growth (KMM-1); format: cell-based, human; conditions: 1 uM-500 uM
Method: C1=1 uM, C2=10 uM, C3=50 uM, C4=100 uM, C5=150 uM, C6=250 uM, C7=300 uM, C8=400 uM, C9=500 uM.
(§4) The expression of TRPV6 protein was also observed in human myeloma cells by immunohistochemistry on myeloma bone sections (FIG. 1C) and in myeloma cell lines by western blotting (FIG. 9). Moreover, the growth inhibitory potential of SOR-C13 and SOR-C27 was determined using human myeloma cell lines U266 and KMM-1 (FIGS. 10 and 11). There exists a reciprocal relationship between myeloma cells and osteoclasts in the bone marrow milieu where myeloma cells secrete many factors that promote osteoclast activity, and in turn osteoclasts induce myeloma cell growth and survival.

[2] = system: Tartrate-Resistant Acid Phosphatase (TRAP) in osteoclasts; test: TRAP enzyme activity in conditioned media of osteoassay wells; format: cell-based, human; conditions: relative to controls
Method: Osteoclasts were fixed and stained for tartrate-resistant acid phosphatase (TRAP) using the leukocyte acid phosphatase kit (Sigma-Aldrich) according to the manufacturer's protocol. Images were acquired in EVOS brightfield microscope. To visualize actin ring formation in osteoclasts, tetramethyl rhodamine-phalloidin (Life Technologies Inc.) staining was done for 1 hour. The cell nuclei were counterstained with 1 μg/ml Hoechst 33342 (Sigma-Aldrich) in phosphate buffered saline for 5 minute. Images were acquired in EVOS fluorescence microscope. TRAP enzyme activity was measured at 37° C. with a substrate buffer (125 mg/ml Naphthol AS-BI phosphoric acid in diazotized fast garnet base chemical solution, Sigma-Aldrich) at 560 nm.
as §2
as §3, with “quantified.” for “quantified. Furthermore, the percentage activity of TRAP, one of the enzymes involved in bone resorption, was determined in tandem with the resorption assay (FIG. 7c).”

U266 cells = test: 48 hr peptide treatment, myeloma cell growth (U266); format: cell-based, human; conditions: 1 uM-500 uM
Method: C1=1 uM, C2=10 uM, C3=50 uM, C4=100 uM, C5=150 uM, C6=250 uM, C7=400 uM, C8=500 uM.
as §4

human osteoclasts = test: Osteoassay: bone resorption by osteoclasts on Corning osteoassay plate; format: cell-based; conditions: for resorptive activity on corning osteoassay surface: 150 μM (C5); for bone resorption by osteoclasts / osteoclast activity (percentage resorption): Corning osteoassay plate, 1 uM-150 uM, M-CSF and RANKL, day 12
Method: as §1
10^5 BMCs per well in 24 well Corning osteoassay plate were treated with human M-CSF (10 ng/mL) and 10 ng/mL of human RANKL. Undifferentiated condition includes cells treated with M-CSF only. The treatment wells had both M-CSF and RANKL followed by addition of TRPV6 peptide antagonists SOR-C13 and SOR-C27 at concentrations range 1 μM-150 μM tested in triplicate wells, vehicle or PBS buffer in which the peptides are dissolved and the standard anti-resorbing agent, Zoledronate were included for the experiment. Replenishment with fresh media containing M-CSF, RANKL and SOR peptides in respective wells was carried out every third day. On day 12, cells in osteoplates were removed by incubating with 10% bleach for 10 minutes; wells were washed with distilled water three times and air-dried for 3-5 hrs. Osteoassay plate was scanned using ChemiDoc MP and area of resorption pits in each well was quantified using ImageJ 1.48v Software.
Experiments were done in triplicates for each condition and data presented as mean±SD. All statistical analyses were done using GraphPad Prism 6, one way ANOVA and Dunnett's multiple comparison test was used to determine significance between groups and P<0.05 is considered statistically significant.
The effect of C-terminal Soricidin peptides on osteoclast activity and bone resorption was examined using 24-well corning assay plates that have a 3D osteo surface that mimics in vivo bone for in vitro bone cell assays. The inorganic bone biomaterial surface in each well is capable of supporting the functional properties of osteogenic cells. Only osteoclasts, specialized cells expressing bone-resorbing enzymes such as TRAP, cathepsin K and collagenase, can resorb such an artificial osteosurface. Resorption of the osteosurface is evident from the resorption pits/trails made by the osteoclasts, and the extent of resorption was quantified. Furthermore, the percentage activity of TRAP, one of the enzymes involved in bone resorption, was determined in tandem with the resorption assay (FIG. 7c). The anti-resorptive potential of selective TRPV6 antagonist peptides, SOR-C13 and SOR-C27 at various concentrations was observed (FIGS. 7 and 8) was observed.

[3] = system: two ovarian cancer cell lines; conditions: cited from earlier work
[4] = in vivo; cited from earlier work

**Q.** For “EGKLSSNDTEGGLCKEFLHPSKVDLPR [SOR-C27, peptide corresponding to the C-terminal end of soricidin; TRPV6 peptide antagonist]”, which “osteoclast differentiation in vitro” value [1] is on record?
**A.** Its value is “inhibited osteoclast differentiation”.

**Q.** And the cell growth (KMM-1 cells)?
**A.** The cell growth was “dose-dependent inhibition of cell growth”.

**Q.** What about the TRAP enzyme activity [2] of the same substance?
**A.** Its TRAP enzyme activity is “decrease in TRAP enzyme activity relative to controls”.

**Q.** What about the cell growth (U266 cells) of the same substance?
**A.** The cell growth was “dose-dependent inhibition of cell growth”.

**Q.** And the “resorptive activity on corning osteoassay surface” value (human osteoclasts)?
**A.** Its value is “significantly reduced their resorptive activity”.

**Q.** What about the “bone resorption by osteoclasts / osteoclast activity (percentage resorption)” value (human osteoclasts) of the same substance?
**A.** Its value is “dose-dependent Inhibition of osteoclast activity; also recorded: dose-dependent decrease in bone resorption”.

**Q.** With KEFLHPSKVDLPR [SOR-C13, KEFLHPSKVDLPR] as the substance, how does the “osteoclast differentiation in vitro” value [1] read?
**A.** Its value is “inhibited osteoclast differentiation”.

**Q.** What about the cell growth (KMM-1 cells) of the same substance?
**A.** Its cell growth is “dose-dependent inhibition of cell growth”.

**Q.** And the TRAP enzyme activity [2]?
**A.** The TRAP enzyme activity was “decrease in TRAP enzyme activity relative to controls”.

**Q.** And the cell growth (U266 cells)?
**A.** The cell growth was “dose-dependent inhibition of cell growth”.

**Q.** What about the “resorptive activity on corning osteoassay surface” value (human osteoclasts) of the same substance?
**A.** The value was “significantly reduced their resorptive activity”.

**Q.** And the “bone resorption by osteoclasts / osteoclast activity (percentage resorption)” value (human osteoclasts)?
**A.** Its value is “inhibition of osteoclast activity; also recorded: dose-dependent decrease in bone resorption”.

**Q.** Which calcium uptake [3] does the source give for “Soricidin: fifty-four amino acid paralytic peptide isolated from the submaxilary saliva gland of the Northern Short-tailed Shrew (Blarina brevicauda) (DCSQDCAACSILARPAELNTETCILECEGKLSSNDTEGGLCKEFLHPSKVDLPR; UniProt P0C2P6 1-54, looked up)” here?
**A.** The calcium uptake was “inhibited calcium uptake”.

**Q.** What about the paralysis [4] of the same substance?
**A.** The paralysis was “caused paralysis”.
